# Experimental data: patent US20160199434A1, “COMPOSITIONS AND METHODS FOR MODULATING DNA METHYLATION” (OHIO STATE INNOVATION FOUNDATION, priority 2013, published 2016)
# “And” between values parts separate entries of the source, which are not always exact repeats. Equal entries are not always repeated. “Also recorded” adds a separate entry of the source.
# Experiments:
# [1] = test system: panel of 14 common tumor suppressor genes; assay: mRNA expression of 14 tumor suppressor genes in A549 cells; type: cell-based, human; conditions: for CDKN1C mRNA expression level: DMSO standardized to 1.0
# Excerpt: FIGS. 12A-12D show the level of mRNA expression for a panel of 14 common tumor suppressor genes in two types of human lung cancer cells (i.e., H1703 squamous cell carcinoma in FIG. 12A and A549 adenocarcinoma in FIG. 12B). […] All of the tumor suppressor mRNAs were augmented in response to AKB-6899 but one, the CDKN1C gene in A549 adenocarcinoma cells, in which expression levels were 0.1 (AKB10) and 0.9 (AKB50) compared to DMSO standardized to 1.0. In FIGS. 12A-12B, the following apply: “1”=DMSO, “2”=AKB-6899 (10 μM), “3”=AKB-6899 (50 μM), and “4”=combination of Decitabine (5 μM)/PBA (2 mM). FIGS. 12C and 12D are raw values for mRNA expression of these 14 genes.
# [2] = test system: DNMT-1; assay: DNMT-1 mRNA expression in lungs of normal mice after systemic administration; type: in vivo, mouse; conditions: i.p. 17.5 mg/kg three times per week for three weeks, vs DMSO
# Description: (§1) FIGS. 14A-14C show the effects of systemic administration of AKB-6899. Mice were treated three times per week for three weeks with either i.p. AKB-6899 or i.p. DMSO. The lungs were removed and assayed to determine DNMT mRNA expression, percent CpG methylation, and fold change in mRNA. […] The data was standardized to 1.0 by the DMSO levels of the respective gene expression, (n=4 lungs per condition).
# [3] = test system: RASSF1 promoter; assay: CpG methylation of RASSF1 promoter in lungs of normal mice; type: in vivo, mouse; conditions: i.p., three weeks (FIG. 14B)
# Description: as §1
# [4] = test system: BEAS-2B cells; assay: XTT cell survival assay, normal lung epithelial cells; type: cell-based; conditions: BEAS-2B normal lung epithelial cells, even at the highest dose (FIG. 13A)
# Excerpt: (§2) FIGS. 13A-13B show XTT cell survival assays for normal lung epithelial cells (BEAS-2B) and lung cancer cells (H1703 squamous cell carcinoma and A549 adenocarcinoma) in response to increasing doses of AKB-6899.
# [5] = test system: human A375 melanoma cells; assay: Tumor growth of human A375 melanoma cells implanted in SCID mice; type: in vivo, mouse; conditions: 19 days after palpable tumor formation, AKB-6899 17.5 mg/kg, Docetaxel 30 mg/kg
# Description: During treatment, tumor growth was determined. Animals were treated with one the following combinations: vehicle/vehicle, vehicle/AKB-6899 (17.5 mg/kg), Docetaxel (30 mg/kg)/vehicle, or Docetaxel/AKB-6899. 19 days after palpable tumor formation, the tumors in the mice receiving the vehicle/AKB-6899 combination had tumors that were 74% the size of control; the tumors in the mice receiving Docetaxel/vehicle combination had tumors that were 49% the size of control; and the tumors in the mice receiving the Docetaxel/AKB-6899 combination had tumors that were 13% the size of control.
# [6] = test system: desmoplakin (DSP) mRNA; assay: Desmoplakin mRNA expression in PyMT tumors of tumor-bearing mice; type: in vivo, mouse
# Excerpt: FIGS. 4A-4B show desmoplakin mRNA expression in vitro and in vivo.
# Desmoplakin (DSP) is the major protein component of the desmosome located in the inner membrane of epithelial cells where it binds desmosomal cadherins to maintain cell-to-cell adhesion. DSP is regulated by ER/PR expression (Maynadier et al. 2012; Ahmed et al., 1995; Pang et al., 2004). Clinically, expression of DSP is higher in normal mammary epithelium. Loss of DSP correlates with less differentiated breast tumors and increased lymph node involvement. […] Functional desmoplakin that is incorporated into the desmosome is not phosphorylated at serine 165/166. Phosphorylation at ser165/166 by protein kinase C (PKC) causes desmoplakin to disassemble from the desmosome. The loss of desmosome function and decreased adherence junctions are markers that can inform tumor staging, prognosis, and treatment planning as this transition eliminates therapeutic effectiveness and increases the likelihood of poor clinical outcome (Dusek et al., 2011). Further, loss of DSP is a marker in the Epithelial-to-Mesenchymal Transition (EMT) process as it binds to adherence proteins that also translocate to the nucleus and activate the Wnt/β-catenin pathway (Yang et al., 2012).
# The gene expression signatures from the tumors of PyMT breast tumor-bearing mice that were treated with either vehicle or AKB-6899 were evaluated. […]
# [7] = test system: DNMT-1; assay: DNMT-1 mRNA expression by RT-PCR in PyMT tumor cells; type: cell-based, mouse; conditions: for DNMT-1 mRNA expression: PyMT tumor cells, 24 hours, compared to DMSO (FIG. 1A)
# Description: FIGS. 1A-1E show DNA methyltransferase mRNA expression in vitro and in vivo. […] PyMT tumor cells were left untreated, were treated with DMSO, or were treated with AKB-6899 (10, 25, or 50 μM) for 24 hours. The cells were subjected to Trizol extraction to recover total RNA. cDNA was synthesized for RT-PCR of DNMT-1 and DNMT-3a mRNA expression. […] Human MDA-MB-231 tumor cells were left untreated, were treated with DMSO, or were treated with AKB-6899 (25 μM) for 24 hours. Total RNA was isolated for RT-PCR. FIG. 1C (DNMT-1), FIG. 1D (DNMT-3a), and FIG. 1E (DNMT-3b) compare the effect of AKB-6899 with the effect of 5-aza-2′deoxycytidine (5-AZA) as assessed by RT-PCR in human cervical tumors implanted in mice that were either untreated (UTX), treated with DMSO, treated with 5-AZA, or treated with AKB-6899 (17.5 mg/kg).
# Because DSP is regulated by ER/PR expression, and because late-stage PyMT tumors lose ER/PR-positivity and heavily metastasize to the lymph nodes and lungs (Lin et al., 2003), the effects of AKB-6899 on more global events that regulate gene expression was evaluated. PyMT tumor cells in culture were treated with DMSO or AKB-6899. Methylation-specific PCR for CpG islands in the desmoplakin promoter were performed. […] Trypan Blue confirmed no cell death in AKB-6899 treated cells when compared to control cells. The experiment was repeated and RNA was isolated from the cells. RT-PCR was performed and the regulation of DNA methyltransferases (DNMTs) was evaluated. […] (FIG. 1A). The decrease in mRNA levels of DNMT-1 and DNMT-3a increased the mRNA level of DSP (FIG. 4A) and increased desmoplakin protein expression (FIG. 5A).
# [8] = test system: A549 adenocarcinoma; assay: XTT cell survival assay, A549 lung cancer cells; type: cell-based, human; conditions: A549, increasing doses (FIG. 13B)
# Excerpt: as §2
# [9] = test system: H1703 squamous cell carcinoma; assay: XTT cell survival assay, H1703 lung cancer cells; type: cell-based, human; conditions: H1703, increasing doses (FIG. 13B)
# Excerpt: as §2
smiles,measurement,setting,value
"O=C(O)CNC(=O)c1ncc(-c2cccc(F)c2)cc1O [AKB-6899, {[5-(3-Fluorophenyl)-3-hydroxypyridine-2-carbonyl]amino}acetic acid]",CDKN1C mRNA expression level,"[1]; A549, 10 μM (AKB10)",0.1
same,tumor suppressor mRNA expression,"[1]; A549, 10 μM and 50 μM, vs DMSO, all genes but CDKN1C",augmented
same,CDKN1C mRNA expression level,"[1]; A549, 50 μM (AKB50)",0.9
same,DNMT-1 expression in lungs,[2],inhibited
same,methylation of RASSF1 promoter in lungs,[3],demethylated
same,cell survival,[4],no significant decrease
same,tumor size relative to control,[5],74%
same,increase in DSP mRNA expression,"[6]; PyMT breast tumor-bearing mice, 17.5 mg/kg, vs DMSO/vehicle animals, 17.5 mg/kg",~118 fold and 118.5 fold
same,desmoplakin expression from PyMT tumors (in words),"[6]; in vivo, compared to vehicle (FIG. 4B)",significantly increased
same,DNMT-1 mRNA level,"[7]; PyMT tumor cells in culture, concentration not given",significant decreases; also recorded: downregulated
same,DNMT-1 mRNA expression,[7]; 10 μM,significantly inhibited
same,DNMT-1 mRNA expression,[7]; 25 μM,significantly inhibited
same,DNMT-1 mRNA expression,[7]; 50 μM,significantly inhibited
same,cell survival / toxicity,[8],pronounced toxicity
same,cell survival / toxicity,[9],pronounced toxicity
